Measured values as given in ChEMBL document CHEMBL1126224, “Synthesis and biological activity of 4-(diphenylmethyl)-alpha-[(4-quinolinyloxy)methyl]-1-piperazineethanol and related compounds” (J Med Chem, 1992).
Calls of active or inactive are those of the source. No cut-off for these calls is given here.

Legend:
Canis familiaris [1] = test: The compound was tested for its cardiovascular activity expressed as heart rate in beat/min in anesthetized dogs for a dose of 0.1 mg/kg; type: functional, Canis lupus familiaris
Canis familiaris [2] = test: Mean blood pressure was tested in anesthetized dogs. for a dose of 1.0 mg/kg; type: functional, Canis lupus familiaris
Canis familiaris [3] = test: The compound was tested for its cardiovascular activity expressed as heart rate in beat/min in anesthetized dogs for a dose of 1.0 mg/kg; type: functional, Canis lupus familiaris
Canis familiaris [4] = test: Total peripheral resistance was tested in anesthetized dogs for a dose of 1.0 mg/kg; type: functional, Canis lupus familiaris
Rattus norvegicus [5] = species on record: Rattus norvegicus; test: The compound was tested for its cardiovascular activity in rat heart model. producing a 50% increase (EC50) in CF(coronary flow).; type: functional, organism-based
Canis familiaris [6] = test: Total peripheral resistance was tested in anesthetized dogs for a dose of 0.3 mg/kg; type: functional, Canis lupus familiaris
Oryctolagus cuniculus = species on record: Oryctolagus cuniculus; test: Calcium channel blocking activity in rabbit aortic rings; type: functional; details: Aorta
Canis familiaris [7] = test: Total peripheral resistance was tested in anesthetized dogs for a dose of 0.1 mg/kg; type: functional, Canis lupus familiaris
Rattus norvegicus [8] = species on record: Rattus norvegicus; test: The compound was tested for its cardiovascular activity in rat heart model. producing a 25% increase (EC25) in CF(coronary flow).; type: functional
Canis familiaris [9] = test: The compound was tested for its cardiovascular activity in anesthetized dogs producing a 25% increase (EC25) in LV dP/dtmax (measure of contractility) for a dose of 0.3 mg/kg; type: functional, Canis lupus familiaris, Heart
Canis familiaris [10] = test: The compound was tested for its cardiovascular activity in anesthetized dogs producing a 25% increase (EC25) in LV dP/dtmax (measure of contractility) for a dose of 0.1 mg/kg; type: functional, Canis lupus familiaris, Heart
Canis familiaris [11] = test: The compound was tested for its cardiovascular activity expressed as heart rate in beat/min in anesthetized dogs for a dose of 0.3 mg/kg; type: functional, Canis lupus familiaris
Canis familiaris [12] = test: Mean blood pressure was tested in anesthetized dogs. for a dose of 0.1 mg/kg; type: functional, Canis lupus familiaris
Cavia porcellus = species on record: Cavia porcellus; test: Coronary flow activity in Langendorff perfused guinea pig heart; type: functional
Canis familiaris [13] = test: Mean blood pressure was tested in anesthetized dogs. for a dose of 0.3 mg/kg; type: functional, Canis lupus familiaris
Rattus norvegicus [14] = species on record: Rattus norvegicus; test: The compound was tested for its cardiovascular activity in rat heart model. producing a 25% increase (EC25) in LV dP/dtmax (measure of contractility).; type: functional
Rattus norvegicus [15] = species on record: Rattus norvegicus; test: The compound was tested for its cardiovascular activity in rat heart model. producing a 50% increase (EC50) in LV dP/dtmax (measure of contractility).; type: functional, organism-based
Canis familiaris [16] = test: The compound was tested for its cardiovascular activity in anesthetized dogs producing a 25% increase (EC25) in LV dP/dtmax (measure of contractility) for a dose of 1.0 mg/kg; type: functional, Canis lupus familiaris, Heart
Canis familiaris [17] = test: The compound was tested for its cardiovascular activity in anesthetized dogs producing a 25% increase (EC25) in LV dP/dtmax (measure of contractility) for a dose of 0.01 mg/kg; type: functional, Canis lupus familiaris, Heart
Canis familiaris [18] = test: Mean blood pressure was tested in anesthetized dogs. for a dose of 0.01 mg/kg; type: functional, Canis lupus familiaris
Rattus norvegicus [19] = species on record: Rattus norvegicus; test: The compound was tested for its cardiovascular activity in rat heart model. producing a 25% increase (EC50) in CF(coronary flow); NA = not achieved; type: functional, organism-based
Canis familiaris [20] = test: The compound was tested for its cardiovascular activity expressed as heart rate in beat/min in anesthetized dogs for a dose of 0.01 mg/kg; type: functional, Canis lupus familiaris
Canis familiaris [21] = test: Total peripheral resistance was tested in anesthetized dogs for a dose of 0.01 mg/kg; type: functional, Canis lupus familiaris
Rattus norvegicus [22] = species on record: Rattus norvegicus; test: The compound was tested for its cardiovascular activity in rat heart model. producing a 50% increase (EC50) in LV dP/dtmax (measure of contractility); NA = not achieved; type: functional, organism-based
Rattus norvegicus [23] = species on record: Rattus norvegicus; test: The compound was tested for its cardiovascular activity in rat heart model. producing a 25% increase (EC25) in LV dP/dtmax (measure of contractility); N = not active; type: functional, organism-based
Rattus norvegicus [24] = species on record: Rattus norvegicus; test: (§1) The compound was tested for its cardiovascular activity in rat heart model. producing a 25% increase (EC25) in CF(coronary flow); N = not active; type: functional, organism-based
Rattus norvegicus [25] = species on record: Rattus norvegicus; test: The compound was tested for its cardiovascular activity in rat heart model. producing a 25% increase (EC25) in LV dP/dtmax (measure of contractility); NA = not achieved; type: functional, organism-based
Rattus norvegicus [26] = species on record: Rattus norvegicus; test: as §1; type: functional, organism-based; remark: listed apart in the source

Compound: N#Cc1cc2c(OCC(O)CN3CCN(C(c4ccccc4)c4ccccc4)CC3)cccc2o1 (configuration not stated)
- Heart rate (Canis familiaris [1]): 0 beats min-1
- Mean blood pressure (Canis familiaris [2]): -14.5 mmHg
- Heart rate (Canis familiaris [3]): -3.33 beats min-1
- Total peripheral resistance (Canis familiaris [4]): -21.7 mmHg·min/mL
- EC50 (Rattus norvegicus [5]): 3000 nM
- Total peripheral resistance (Canis familiaris [6]): -8.66 mmHg·min/mL
- EC25 (Oryctolagus cuniculus): > 100000 nM
- Total peripheral resistance (Canis familiaris [7]): -0.66 mmHg·min/mL
- EC25 (Rattus norvegicus [8]): 100 nM
- Contractility (Canis familiaris [9]): 9.3 mmHg s-1
- Contractility (Canis familiaris [10]): 2 mmHg s-1
- Heart rate (Canis familiaris [11]): -1.66 beats min-1
- Mean blood pressure (Canis familiaris [12]): -0.66 mmHg
- EC25 (Cavia porcellus): 2250 nM
- Mean blood pressure (Canis familiaris [13]): -7.3 mmHg
- EC25 (Rattus norvegicus [14]): 100 nM
- EC50 (Rattus norvegicus [15]): 420 nM
- Contractility (Canis familiaris [16]): 30.3 mmHg s-1

Compound: N#Cc1cc2c(OCC(O)CN3CCN(C(c4ccccc4)c4ccccc4)CC3)cccc2[nH]1 (configuration not stated)
- Heart rate (Canis familiaris [1]): -0.66 beats min-1
- Mean blood pressure (Canis familiaris [2]): -21 mmHg
- Heart rate (Canis familiaris [3]): -1 beats min-1
- Total peripheral resistance (Canis familiaris [4]): -24.5 mmHg·min/mL
- EC25 (Oryctolagus cuniculus): > 100000 nM
- Total peripheral resistance (Canis familiaris [7]): -17.3 mmHg·min/mL
- Contractility (Canis familiaris [17]): 9 mmHg s-1
- Mean blood pressure (Canis familiaris [18]): 4.3 mmHg
- EC25 (Rattus norvegicus [8]): 300 nM
- Contractility (Canis familiaris [10]): 21.3 mmHg s-1
- Mean blood pressure (Canis familiaris [12]): 2.3 mmHg
- EC50 (Rattus norvegicus [19]): Not Active
- EC25 (Cavia porcellus): 280 nM
- EC25 (Rattus norvegicus [14]): 20 nM
- Heart rate (Canis familiaris [20]): 0.66 beats min-1
- EC50 (Rattus norvegicus [15]): 35 nM
- Contractility (Canis familiaris [16]): 83.3 mmHg s-1
- Total peripheral resistance (Canis familiaris [21]): -9.6 mmHg·min/mL

Compound: OC(COc1ccc2cccnc2c1)CN1CCN(C(c2ccccc2)c2ccccc2)CC1 (configuration not stated)
- EC50 (Rattus norvegicus [5]): 1010 nM
- EC25 (Rattus norvegicus [8]): 160 nM
- EC50 (Rattus norvegicus [22]): Not Active
- EC25 (Rattus norvegicus [14]): 700 nM

Compound: Cc1cc(OCC(O)CN2CCc3ccccc3C2)c2ccccc2n1 (configuration not stated)
- EC25 (Rattus norvegicus [23]): inactive
- EC50 (Rattus norvegicus [24]): Not Active

Compound: OC(COc1cccc2ncccc12)CN1CCN(C(c2ccccc2)c2ccccc2)CC1 (configuration not stated)
- EC50 (Rattus norvegicus [5]): 2000 nM
- EC25 (Rattus norvegicus [8]): 800 nM
- EC25 (Rattus norvegicus [25]): inactive

Compound: Cl.OC(COc1ccc2ncccc2c1)CN1CCN(C(c2ccccc2)c2ccccc2)CC1 (configuration not stated)
- EC25 (Rattus norvegicus [26]): inactive
- EC25 (Rattus norvegicus [14]): 480 nM
- EC50 (Rattus norvegicus [15]): 800 nM

Compound: OC(COc1ccnc2cc(C(F)(F)F)ccc12)CN1CCN(C(c2ccccc2)c2ccccc2)CC1 (configuration not stated)
- EC25 (Rattus norvegicus [23]): inactive
- EC50 (Rattus norvegicus [5]): 400 nM
- EC25 (Rattus norvegicus [8]): 200 nM

Compound: OC(COc1cccc2[nH]ccc12)CN1CCN(C(c2ccccc2)c2ccccc2)CC1 (configuration not stated)
- EC25 (Rattus norvegicus [23]): inactive
- EC50 (Rattus norvegicus [5]): 2500 nM
- EC25 (Rattus norvegicus [8]): 120 nM

Compound: CCOC(=N)c1cc2c(OCC(O)CN3CCN(C(c4ccccc4)c4ccccc4)CC3)cccc2o1 (configuration not stated)
- EC25 (Rattus norvegicus [23]): inactive
- EC25 (Rattus norvegicus [8]): 1000 nM

Compound: Cc1cc(OCC(O)CN2CCN(C(c3ccccc3)c3ccccc3)CC2)c2ccccc2n1.Cl.O (configuration not stated)
- EC25 (Rattus norvegicus [8]): 800 nM

Compound: Oc1nccc2c(OCC(O)CN3CCN(C(c4ccccc4)c4ccccc4)CC3)cccc12 (configuration not stated)
- EC25 (Rattus norvegicus [8]): 150 nM

Compound: OC(COc1cccc2cnccc12)CN1CCN(c2ccccc2SCc2ccccc2)CC1 (configuration not stated)
- EC25 (Rattus norvegicus [23]): inactive
- EC25 (Rattus norvegicus [8]): 1000 nM

Compound: OC(COc1cccc2cnccc12)CN1CCN(C(c2ccccc2)c2ccccc2)CC1 (configuration not stated)
- EC25 (Rattus norvegicus [23]): inactive
- EC50 (Rattus norvegicus [5]): 1500 nM
- EC25 (Rattus norvegicus [8]): 200 nM

Compound: OC(COc1ccnc2ccccc12)CN1CCN(C(c2ccccc2)c2ccccc2)CC1 (configuration not stated)
- Heart rate (Canis familiaris [1]): -2 beats min-1
- Mean blood pressure (Canis familiaris [2]): 3 mmHg
- Heart rate (Canis familiaris [3]): -2.6 beats min-1
- Total peripheral resistance (Canis familiaris [4]): -17 mmHg·min/mL
- EC25 (Rattus norvegicus [26]): inactive
- Total peripheral resistance (Canis familiaris [6]): 6.5 mmHg·min/mL
- EC25 (Oryctolagus cuniculus): > 100000 nM
- Total peripheral resistance (Canis familiaris [7]): 3 mmHg·min/mL
- Contractility (Canis familiaris [9]): 40 mmHg s-1
- Contractility (Canis familiaris [10]): 12 mmHg s-1
- Heart rate (Canis familiaris [11]): -3.5 beats min-1
- Mean blood pressure (Canis familiaris [12]): 3 mmHg
- EC25 (Cavia porcellus): 900 nM
- Mean blood pressure (Canis familiaris [13]): 4.5 mmHg
- EC25 (Rattus norvegicus [14]): 140 nM
- EC50 (Rattus norvegicus [15]): 320 nM
- Contractility (Canis familiaris [16]): 115.5 mmHg s-1

Compound: Cc1cc(OCC(O)Cn2cnc3ccccc32)c2ccccc2n1 (configuration not stated)
- EC25 (Rattus norvegicus [23]): inactive
- EC50 (Rattus norvegicus [24]): Not Active
